Reference: patent US5859333A, “Plants and processes for obtaining them” (Zeneca Limited, priority 1992, dated 1999)
Where two headings read alike, the source gives them in different places. Values belong to the compound of their own block, whether it stands above or below them. Where no end group is shown, it is not given here.

How the values were obtained:
sweet corn SGP = target: T1, sweet corn SGP (Zea mays, UniProt P80607); experiment: Self-glucosylating protein (SGP) assay, incorporation of 14C-glucose from UDP-[14C]glucose into TCA-precipitable protein; assay type: biochemical; conditions: for inhibitory effect on activity of sweet corn SGP: result in words; for stimulating effect of divalent cation on sweet corn SGP activity: concentration dependence measured, manganese at 5 mM
T1 construct: not recombinant
T1 sequence (P80607 whole entry): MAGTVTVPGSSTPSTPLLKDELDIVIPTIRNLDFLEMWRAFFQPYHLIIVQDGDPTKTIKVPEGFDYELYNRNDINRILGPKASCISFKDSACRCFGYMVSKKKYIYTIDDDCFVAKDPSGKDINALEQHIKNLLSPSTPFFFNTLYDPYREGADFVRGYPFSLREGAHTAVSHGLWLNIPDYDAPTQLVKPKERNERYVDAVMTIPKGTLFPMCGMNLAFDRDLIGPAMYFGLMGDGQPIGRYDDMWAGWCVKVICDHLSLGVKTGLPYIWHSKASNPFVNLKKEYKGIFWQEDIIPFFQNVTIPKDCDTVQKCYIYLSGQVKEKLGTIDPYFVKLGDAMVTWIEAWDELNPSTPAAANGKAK
Protocol: The reaction was stopped by the addition of 1 ml of 10% TCA (trichloroacetic acid). After standing for 10 minutes the sample was passed through a nitrocellulose filter, type HA 0.45 uM, washed with about 3 ml 10% TCA and approximately 10 ml of water and the filter dried under an infrared lamp. Following this, the filter was placed in 4 ml of scintillation liquid (Ecolume) and measured for ^14 C radioactivity in a Searle Delta 300 6890 liquid scintillation counter.
The radioactivity measured on the filter represents ^14 C-glucose that was incorporated into TCA-precipitable material (assuming no conversion to the glucose molecule into any other compound). […] Endogenously glucosylated SGP would not be detectable and could not be quantitated by this method.

Rabbit muscle SGP = target: T2, Rabbit muscle SGP (Oryctolagus cuniculus, UniProt P13280); experiment: Self-glucosylation activity of rabbit muscle SGP (glycogenin); assay type: biochemical; conditions: for inhibition of the self-glucosylating protein in rabbit muscle: act as alternative substrates
T2 construct: from tissue; host or cells: rabbit muscle
T2 sequence (P13280 1-333): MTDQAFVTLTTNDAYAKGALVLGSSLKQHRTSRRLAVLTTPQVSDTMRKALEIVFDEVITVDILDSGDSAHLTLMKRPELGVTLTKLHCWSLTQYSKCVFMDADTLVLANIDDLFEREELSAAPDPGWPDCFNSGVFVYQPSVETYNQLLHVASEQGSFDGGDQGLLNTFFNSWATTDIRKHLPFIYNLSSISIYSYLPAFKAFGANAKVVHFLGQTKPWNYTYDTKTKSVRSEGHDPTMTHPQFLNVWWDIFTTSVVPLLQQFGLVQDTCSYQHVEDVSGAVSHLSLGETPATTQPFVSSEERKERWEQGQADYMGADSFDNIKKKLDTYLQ

[1] = tested on: proteins of molecular weight higher than SGP; conditions: 16 fold purified extract, 24 hr
[2] = target: amylogenin (self-glucosylating protein, SGP) from maize (Zea mays) endosperm (Zea mays) (UniProt P80607)

Compound: Nc1ncnc2c1ncn2[C@@H]1O[C@H](COP(=O)(O)OP(=O)(O)OP(=O)(O)O)[C@@H](O)[C@H]1O [ATP, adenosine triphosphate]
- IC50 (sweet corn SGP): 100 µM
- inhibitory effect on activity of sweet corn SGP (sweet corn SGP): potent inhibitor
- potency as inhibitor of sweet corn SGP relative to rabbit muscle SGP (sweet corn SGP; sweet corn SGP vs rabbit muscle SGP): 30 fold
- IC50 (Rabbit muscle SGP; read-out: concentration giving 50% inhibition of rabbit muscle SGP): 3500 µM

Compound: [Ca+2] [Calcium]
- stimulating effect of divalent cation on sweet corn SGP activity (sweet corn SGP): no stimulatory effect

Compound: O=C(O)CN(CCN(CC(=O)O)CC(=O)O)CC(=O)O [EDTA, ethylene diamine tetra acetate]
- sweet corn SGP activity after treatment with chelator (sweet corn SGP; treated with EDTA): looses all its activity

- stimulating effect of divalent cation on sweet corn SGP activity (sweet corn SGP): most potent stimulating effect
- stimulation of muscle SGP by divalent cation (Rabbit muscle SGP; result in words): stimulated
Compound: [Cl][Mn][Cl] [Manganese, MnCl2]
- effect on radioglucosylation of higher molecular weight proteins ([1]; 1 mM): proceeds
- effect on radioglucosylation of higher molecular weight proteins ([1]; 5 mM): inhibited

Compound: N=C(N)NCCC[C@H](N)C(=O)O [arginine]
- inhibitory effect on activity of sweet corn SGP (sweet corn SGP): No effect

- maximum stimulating effect on sweet corn SGP (sweet corn SGP; at 10 mM concentration): about 50%
Compound: [Mg+2] [magnesium]

Compound: O=[N+]([O-])c1ccc(O)cc1 [p-Nitrophenol]
- inhibitory effect on activity of sweet corn SGP (sweet corn SGP): no effect

- inhibition of the self-glucosylating protein in rabbit muscle (Rabbit muscle SGP; result in words): inhibited
Compound: O=[N+]([O-])c1ccc(OC2O[C@H](CO)[C@@H](O[C@H]3O[C@H](CO)[C@@H](O)[C@H](O)[C@H]3O)[C@H](O)[C@H]2O)cc1 (some centres unmarked) [p-nitro-phenylmaltose]

- inhibition of the self-glucosylating protein in rabbit muscle (Rabbit muscle SGP; result in words): inhibited
Compound: O=[N+]([O-])c1ccc(OC2O[C@H](CO)[C@@H](O[C@H]3O[C@H](CO)[C@@H](O[C@H]4O[C@H](CO)[C@@H](O[C@H]5O[C@H](CO)[C@@H](O)[C@H](O)[C@H]5O)[C@H](O)[C@H]4O)[C@H](O)[C@H]3O)[C@H](O)[C@H]2O)cc1 (some centres unmarked) [p-nitrophenyl- maltotetrose]

- inhibitory effect on activity of sweet corn SGP (sweet corn SGP): no effect
Compound: O=[N+]([O-])c1ccc(O[C@H]2O[C@H](CO)[C@@H](O)[C@H](O)[C@H]2O)cc1 [p-nitrophenyl-alpha-glucoside]

- inhibitory effect on activity of sweet corn SGP (sweet corn SGP): no effect
Compound: O=[N+]([O-])c1ccc(O[C@@H]2O[C@H](CO)[C@@H](O)[C@H](O)[C@H]2O)cc1 [p-nitrophenyl-beta-glucoside]

- inhibition of the self-glucosylating protein in rabbit muscle (Rabbit muscle SGP; result in words): inhibited
Compound: O=[N+]([O-])c1ccc(OC2O[C@H](CO)[C@@H](O[C@H]3O[C@H](CO)[C@@H](O[C@H]4O[C@H](CO)[C@@H](O)[C@H](O)[C@H]4O)[C@H](O)[C@H]3O)[C@H](O)[C@H]2O)cc1 (some centres unmarked) [p-nitrophenylmaltotriose]

- proteolysis (trypsinolysis) of SGP [2]: 70%
Compound: TPCK-trypsin (enzyme)

- inhibitory effect on activity of sweet corn SGP (sweet corn SGP): No effect
Compound: synthetic peptide comprising the same amino acid sequence as the glucosylated tryptic peptide T2: synthetic peptide with the sequence of tryptic peptide T2 (SEQ ID NO: 2, E G A N F V X G Y P F S L R) (EGANFVXGYPFSLR; not fully specified; X: residue not identified in the source)
